Data on one molecule can be found in PMC4951196, “The Lamin B receptor is essential for cholesterol synthesis and perturbed by disease-causing mutations” (eLife, 2016).

The assay deals with T1, Lamin B receptor (LBR) (Homo sapiens, UniProt Q14739).
T1 construct: Flag-tagged LBR, WT, expressed in Expi293 cells and purified
T1 sequence (Q14739 1-615): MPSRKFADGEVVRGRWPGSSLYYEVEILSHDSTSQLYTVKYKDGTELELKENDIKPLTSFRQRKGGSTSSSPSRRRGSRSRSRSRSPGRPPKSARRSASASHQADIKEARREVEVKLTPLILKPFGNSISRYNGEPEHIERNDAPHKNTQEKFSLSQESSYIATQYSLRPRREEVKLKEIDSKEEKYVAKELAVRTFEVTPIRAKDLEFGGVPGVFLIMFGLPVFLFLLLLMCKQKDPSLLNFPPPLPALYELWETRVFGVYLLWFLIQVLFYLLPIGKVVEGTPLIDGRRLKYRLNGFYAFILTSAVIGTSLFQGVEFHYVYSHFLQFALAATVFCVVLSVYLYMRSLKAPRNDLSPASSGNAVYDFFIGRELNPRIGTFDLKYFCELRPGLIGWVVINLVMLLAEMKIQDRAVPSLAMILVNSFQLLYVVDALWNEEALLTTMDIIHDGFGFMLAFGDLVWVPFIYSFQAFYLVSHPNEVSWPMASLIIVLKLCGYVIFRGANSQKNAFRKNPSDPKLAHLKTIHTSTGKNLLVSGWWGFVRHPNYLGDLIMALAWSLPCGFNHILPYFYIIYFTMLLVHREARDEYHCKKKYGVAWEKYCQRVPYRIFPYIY
Kind of assay: intrinsic tryptophan fluorescence titration of purified LBR. Type of assay: binding.

In the case of `NC(=O)C1=CN([C@@H]2O[C@H](COP(=O)(O)OP(=O)(O)OC[C@H]3O[C@@H](n4cnc5c(N)ncnc54)[C@H](OP(=O)(O)O)[C@@H]3O)[C@@H](O)[C@H]2O)C=CC1` [NADPH], the Kd came out at 24.2 µM.
